Experimental data: patent publication US7279598B2, “Process for separating and recovering 3-hydroxypropionic acid and acrylic acid” (priority 2003, dated 2007)

Assay: Extraction of acrylic acid and 3-hydroxypropionic acid from aqueous stock solutions by ethyl acetate (partition between ethyl acetate and aqueous phase)
Format: physicochemical
Conditions: for Partition coefficient, D, average number of partition coefficients listed in Table 2: ethyl acetate / aqueous phase, average over the five stock solutions; for Partition Coefficient, D: ethyl acetate extractant phase / aqueous phase, 22° C.; for Separation Factor, S AA/3HP: partition coefficient of AA divided by that of 3HP
Description: The aqueous stock solutions comprise 30% 3-hydroxypropionic acid aqueous solution and 99% acrylic acid.
1. To a 15 ml centrifuge tube 5 ml of each acid stock solution and ethyl acetate extractant were added.
2. […] (rpm designates revolutions per minute).
4. The volumes of the aqueous and ethyl acetate extractant phases in the tubes were recorded.
The processing conditions and experimental results for the extraction of acrylic acid (AA) and 3-hydroxypropionic acid (3HP) by ethyl acetate are reported in the following Table 2.

[1] = Aqueous Stock Solution No. 1 (0.67 wt % AA, 1.34 wt % 3HP)
[2] = Aqueous Stock Solution No. 2 (3.33 wt % AA, 6.67 wt % 3HP)
[3] = Aqueous Stock Solution No. 3 (6.67 wt % AA, 13.34 wt % 3HP)
[4] = Aqueous Stock Solution No. 4 (9.99 wt % AA, 19.98 wt % 3HP)
[5] = Aqueous Stock Solution No. 5 (12.51 wt % AA, 25.05 wt % 3HP)

Row | Compound | Partition coefficient, D, average number of partition coefficients listed in Table 2 | Partition Coefficient, D [1] | Partition Coefficient, D [2] | Partition Coefficient, D [3] | Partition Coefficient, D [4] | Partition Coefficient, D [5] | Separation Factor, S AA/3HP (Aqueous Stock Solution No. 1) | Separation Factor, S AA/3HP (Aqueous Stock Solution No. 2) | Separation Factor, S AA/3HP (Aqueous Stock Solution No. 3) | Separation Factor, S AA/3HP (Aqueous Stock Solution No. 4) | Separation Factor, S AA/3HP (Aqueous Stock Solution No. 5)
1 | O=C(O)CCO [3HP, 3-hydroxypropionic acid] | 0.274 | 0.18 | 0.21 | 0.27 | 0.30 | 0.41 |  |  |  |  | 
2 | C=CC(=O)O [AA, acrylic acid] | 2.572 | 2.96 | 2.97 | 2.66 | 2.36 | 1.91 | 16.55 | 14.18 | 9.79 | 7.81 | 4.66
